# PMC9975698, “Hyperoside alleviates toxicity of β-amyloid via endoplasmic reticulum-mitochondrial calcium signal transduction cascade in APP/PS1 double transgenic Alzheimer's disease mice” (Redox Biology, 2023)
# Experiments:
# Assay type in all cases: cell-based
# [1] = system: HT22 cells; test: Mitochondrial membrane potential by JC-1; settings: CCCP positive control
# Excerpt: The mitochondrial membrane potential of HT22 stained with 5,5′,6,6′-tetrachloro-1,1′,3,3′-tetraethylbenzimidazolyl cobalt iodide (JC-1) was observed by laser scanning confocal microscopy.
# [2] = system: HT22 cells; test: Cytotoxicity (MTT) assay; settings: aggregated Aβ 30 μM
# Protocol: Cytotoxicity was assessed using the MTT (5.0 mg/mL) assay. 4 × 10^3 HT22 cells per well were seeded in 96-well plates. After overnight incubation, cells were treated with Aβ aggregates (30 μM) for 48 h with or without the presence of HYP (20–80 μM). Cells were treated with DMSO as a control. Subsequently, MTT (10 μL) was added to each well for 4 h, followed by the addition of 100 μL of lysis buffer (10% SDS in 0.01 mol/L hydrochloric acid) and overnight incubation. The absorbance was measured at 570 nm the next day. The formula was calculated as a percentage of cell viability: Cell viability (%) = A (treatded) / A (control) × 100%. Data were obtained from three independent experiments in triplicate.
# [3] = system: HT22 cells; test: Fluo-3 detection of calcium ion concentration; settings: after addition of Aβ
# Protocol: 2 × 10^5 HT22 cells were incubated in 35 mm confocal dishes for 24 h at 37 °C in a CO^2 incubator. A 5 mM Fluo-3 AM stock solution was diluted with Hanks-Balanced Salt Solution (HBSS) to a 5 μM working solution and then added to the cells for 30 min at 37 °C. HT22 cells were washed three times with HEPES-buffered saline and then incubated in an imaging chamber at 37 °C for an additional 10 min. After the addition of 30 μM of Aβ aggregates in HBSS buffer, changes in cellular Ca^2+ levels were monitored by epifluorescence microscopy (Applied Precision DeltaVision Elite, Applied Precision, Inc., United States) using the real-time mode for tracking Fluo-3 changes for 5 min. The data inspection program provided by DeltaVision software was used to measure the intensity of Fluo-3 fluorescence.
# [4] = system: HT22 cells; test: Annexin V-PI detection by flow cytometry; settings: BAPTA/AM co-treatment, annexin V-PI staining
# Protocol: Apoptosis was detected with Annexin V staining kit (BD Biosciences, CA, USA). […] The number of apoptotic cells was quantified by flow cytometry (BD FACSAria III, CA, USA). Data acquisition and analysis were performed with CellQuest (BD Biosciences) from three independent experiments.
# [5] = system: HT22 cells; test: Cytoplasmic calcium dynamics (FLIPR Calcium 6); settings: HT22 cells, TG or Aβ 30 μM
# Protocol: Intracellular Ca^2+ dynamics were determined using the FLIPR Calcium 6 Assay Kit (Molecular Devices) according to the manufacturer's instructions. Briefly, HT22 was housed at 4 × 10^4 cells per well in a black-walled and clear-bottom 96 multi-well plate (Costar, MA, USA) and treated with Calcium 6 reagent for 1 h.
molecule,measurement,setting,value
"Carbonyl cyanide m-chlorophenyl hydrazine [CCCP, reference compound]",mitochondrial membrane potential (JC-1),[1],loss of membrane potential
Aβ: Aβ (1–42) peptide incubated at 37 °C for 5 days to form Aβ aggregates [reference compound],cell death by aggregated Aβ alone,[2],induced cell death in HT22
same,Fluo-3 fluorescence intensity (Ca2+ level),[3],significant increase of fluorescence intensity
CC(=O)OCOC(=O)CN(CC(=O)OCOC(C)=O)c1ccccc1OCCOc1ccccc1N(CC(=O)OCOC(C)=O)CC(=O)OCOC(C)=O [BAPTA/AM],percentage of Aβ-induced cell death,[4],decrease the percentage of Aβ-induced cell death
"C/C=C(/C)C(=O)O[C@H]1C(C)=C2[C@H]([C@@H]1OC(=O)CCCCCCC)[C@@](C)(OC(C)=O)C[C@H](OC(=O)CCC)[C@@]1(O)[C@H]2OC(=O)[C@@]1(C)O [TG, Thapsigargin, reference compound]","dynamic Ca2+ level, inducer alone",[5],prompt increase in Ca^2+ level
